Molecules are shown by their SMILES. pEC50: −log10 of the molar value. The source made the active and inactive calls. The rule behind the calls is not given here.

The values that follow come from ChEMBL document CHEMBL5226374, “Peniandranoids A-E: Meroterpenoids with Antiviral and Immunosuppressive Activity from a Penicillium sp” (J Nat Prod, 2023).

Series [1] deals with Splenocyte. In words: Immunosuppressive activity in BALB/c mouse splenocytes assessed as reduction in LPS-induced mouse B-lymphocytes proliferation incubated for 48 hrs by MTT assay. Type of series: functional, cell-based. For orientation: Tetrazolium dyes change colour on reduction, which living cells bring about.
Series [2] is described as follows: Cytotoxicity against MDCK cells assessed as reduction in cell viability incubated for 48 hrs by CellTiter-Glo assay. The note with it: dog. The format is toxicity, cell-based, Canis lupus familiaris.
Series [3] is described as follows: Selectivity index, ratio of CC50 for cytotoxicity in BALB/c mouse splenocytes to EC50 for immunosuppressive activity in BALB/c mouse splenocytes assessed as reduction in LPS-induced mouse B-lymphocytes proliferation. The format is toxicity, cell-based. The note with it: read-out: Ratio CC50/EC50.
A further series deals with Influenza A virus. In words: Antiviral activity against Influenza A virus A/PR/8 (H1N1) infected in MDCK cells assessed as inhibition of viral growth incubated for 48 hrs by indirect immunofluorescence assay. Type of series: functional, organism-based.
The nature of series [4]: Selectivity index, ratio of CC50 for cytotoxicity in BALB/c mouse splenocytes to EC50 for immunosuppressive activity in BALB/c mouse splenocytes assessed as reduction in ConA-induced mouse T-lymphocytes proliferation. The format is toxicity, cell-based. The note with it: read-out: Ratio CC50/EC50.
For the next series, the system named is A549. In words: Cytotoxicity against human A549 cells assessed as inhibition of cell growth by MTT assay. Type of series: functional, cell-based.
A further series deals with HeLa. The experiment in a line: Cytotoxicity against human HeLa cells assessed as inhibition of cell growth by MTT assay. Type of series: functional, cell-based.
The next series relates to HT-29. In words: Cytotoxicity against human HT-29 cells assessed as inhibition of cell growth by MTT assay. The format is functional, cell-based.
Another series relates to MCF7. The experiment in a line: Cytotoxicity against human MCF7 cells assessed as inhibition of cell growth by MTT assay. The format is functional, cell-based.
Series [5] concerns Splenocyte. The experiment in a line: Immunosuppressive activity in BALB/c mouse splenocyte assessed as reduction in ConA-induced mouse T-lymphocytes proliferation incubated for 48 hrs by MTT assay. The format is functional, cell-based.
A further series concerns HCT-116. In words: Cytotoxicity against human HCT-116 cells assessed as inhibition of cell growth by MTT assay. Type of series: functional, cell-based.
Series [6] can be described thus: Cytotoxicity against BALB/c mouse Splenocyte assessed as reduction in cell viability incubated for 48 hrs by MTT assay. The format is toxicity, cell-based. The note with it: splenocytes.
In the next series the test system is L02. In words: Cytotoxicity against human L02 cells assessed as inhibition of cell growth by MTT assay. Type of series: toxicity, cell-based.
A short description of series [7]: Selectivity index, ratio of CC50 for cytotoxicity against MDCK cells to EC50 for antiviral activity against Influenza A virus A/PR/8 (H1N1) infected in MDCK cells. The format is toxicity, cell-based. The note with it: dog, read-out: Ratio CC50/EC50.
The nature of series [8]: Cytotoxicity against human HEp-2 cells assessed as reduction in cell viability incubated for 6 days by CellTiter-Glo assay. The note with it: time 6 day. The format is toxicity, cell-based.
A further series concerns dengue virus type 3. In words: Antiviral activity against Dengue virus 3 infected in african green monkey Vero cells assessed as reduction in viral protein expression incubated for 48 hrs by indirect immunofluorescence assay. The format is functional, organism-based.
The nature of series [9]: Selectivity index, ratio of CC50 for cytotoxicity against African green monkey Vero cells to EC50 for antiviral activity against Dengue virus 3 infected in african green monkey Vero cells. Type of series: toxicity, cell-based. The note with it: read-out: Ratio CC50/EC50.
The nature of series [10]: Cytotoxicity against African green monkey Vero cells incubated for 48 hrs by DAPI staining based assay. The format is toxicity, cell-based. As to conditions: chlorocebus sabaeus.
For series [11], the system named is Respiratory syncytial virus. In words: Antiviral activity against Respiratory syncytial virus infected in human HEp-2 cells assessed as inhibition of virus-induced cytopathic effect measured after 6 days by CellTiter-Glo assay. Type of series: functional, organism-based. As to conditions: HEp-2, 144 h. Background: Protection from cytopathic effect is a common read-out in antiviral testing.

A short description of series [12]: Selectivity index, ratio of CC50 for cytotoxicity against human HEp-2 cells to EC50 for antiviral activity against Respiratory syncytial virus infected in human HEp-2 cells. Type of series: toxicity, cell-based. The note with it: read-out: Ratio CC50/EC50.

Consider `COc1c(C)c2c(c(O)c1C/C=C(\C)CCC(=O)OCCN1CCOCC1)C(=O)OC2` [MYCOPHENOLATE MOFETIL], for which the pEC50 in the series on Splenocyte [1] was 6.32.
`COC(=O)[C@@]12C(=O)[C@](C)(C(=O)c3cc(OC)c(O)c(O)c3C(C)=O)C(=O)[C@]1(C)C(C)=C[C@H]1[C@]3(C=O)CC[C@H](OC(C)=O)C(C)(C)[C@H]3CC[C@@]12C`: the figures for the CC50 at 48 h in series [2] and in series [6] were 114 µg/mL and 44 µM, respectively. Further, the selectivity ratio in [3] came to 1.9; in series [4], 1.9; in [7], 8.1. Besides, in the series on Influenza A virus, the EC50 came to 14 µg/mL. The outcome with A549, in the series with HeLa, in the series on HT-29, with MCF7 and in the series with HCT-116 was inactive. In addition, the negative logarithm of the EC50 (pEC50) in the series on Splenocyte [5] and in the series on Splenocyte [1] was 4.64 in each case. The Activity entry in the series on L02 is listed as “Non-Toxic”.
As for `COC(=O)[C@@]12C(=O)[C@](C)(Cc3c(O)c(C)cc(C(C)=O)c3O)C(=O)[C@]1(C)C(C)=C[C@H]1[C@]3(CO)CC[C@H](OC(C)=O)C(C)(C)[C@H]3CC[C@@]12C`, the selectivity ratio in series [3] is more than 1. Further, the result in the series on A549, in the series on HeLa, in the series on HT-29, in the series on MCF7 and in the series with HCT-116 was inactive. For the same compound, the pEC50 with Splenocyte [5] is less than 4.30; with Splenocyte [1], 4.30. Further, the CC50 at 48 h in [6] is more than 50 µM. In addition, in the series on L02, the Activity result was “Non-Toxic”.
As to `COC(=O)C1=C(C[C@@H](C)[C@]2(C)C(=O)[C@]3(C)C(C)=C[C@H]4[C@]5(C=O)CC[C@H](OC(C)=O)C(C)(C)[C@H]5CC[C@]4(C)[C@]3(C(=O)OC)C2=O)O[C@](C)(/C=C/C=C/[C@H](C)O)C1=O`, the results for the selectivity ratio in [3] and in series [4] were more than 4.2 and more than 1.9, respectively. Also, the result with A549, in the series with HeLa, in the series with HT-29, in the series on MCF7 and in the series on HCT-116 was inactive. In addition, the pEC50 in the series with Splenocyte [5] was 4.57; in the series with Splenocyte [1] it was 4.92. Also, the CC50 at 48 h in series [6] was more than 50 µM. Moreover, the Activity result in the series on L02 is “Non-Toxic”.
For `COC(=O)[C@@]12C(=O)[C@](C)(C(=O)c3cc(OC)c(O)c(O)c3C(C)=O)C(=O)[C@]1(C)C(C)=C[C@H]1[C@]3(C)CC[C@H](OC(C)=O)C(C)(C)[C@H]3CC[C@@]12C`, the selectivity ratio in [3] was 2.4; in series [4], 1.9. The result with A549, in the series with HeLa, with HT-29, in the series on MCF7 and in the series with HCT-116 was inactive. Moreover, the pEC50 was 4.96 in the series with Splenocyte [5] and 5.06 in the series with Splenocyte [1]. Further, in [6], the cytotoxic concentration (CC50) at 48 h stood at 21 µM. Also, the Activity result in the series with L02 is “Non-Toxic”.
For the compound `CC/C=C/C=C/[C@@]1(C)OC(C[C@H](C)[C@]2(C)C(=O)[C@]3(C)C(C)=C[C@H]4[C@]5(C=O)CC[C@H](OC(C)=O)C(C)(C)[C@H]5CC[C@]4(C)[C@]3(C(=O)OC)C2=O)=C(C(=O)OC)C1=O`, the selectivity ratio in series [3] and in series [4] was 2.2 throughout. In addition, the pEC50 in the series with Splenocyte [5] and in the series on Splenocyte [1] was 5.07 each time. The CC50 at 48 h in series [6] amounted to 19 µM.
For `CC/C=C/C=C/[C@@]1(C)OC(C[C@@H](C)[C@]2(C)C(=O)[C@]3(C)C(C)=C[C@H]4[C@]5(C=O)CC[C@H](OC(C)=O)C(C)(C)[C@H]5CC[C@]4(C)[C@]3(C(=O)OC)C2=O)=C(C(=O)OC)C1=O`, the values for the selectivity ratio in series [3] and in series [4] were 3.5 and 1.1, respectively. The pEC50 is 4.64 in the series on Splenocyte [5] and 5.12 in the series on Splenocyte [1]. Also, the cytotoxic concentration (CC50) at 48 h in series [6] stood at 26 µM.
Regarding `COC(=O)[C@@]12C(=O)[C@](C)(Cc3c(O)c(C)cc(C(C)=O)c3O)C(=O)[C@]1(C)C(C)=C[C@H]1[C@]3(C=O)CC[C@H](OC(C)=O)C(C)(C)[C@H]3CC[C@@]12C`, the CC50 at 144 h in [8] came to 43 µg/mL. The values for the CC50 at 48 h in [2], in series [10] and in series [6] were more than 500 µg/mL, 73 µg/mL and more than 50 µM, respectively. In addition, the EC50 in the series on dengue virus type 3 is more than 100 µg/mL; in the series on Influenza A virus, 19 µg/mL. Moreover, the selectivity ratio in series [9] was less than 1; in series [4], more than 2.6; in [7] it was more than 26. Besides, the outcome in the series on A549, in the series on HeLa, in the series on HT-29, with MCF7 and with HCT-116 was inactive. For the same compound, the pEC50 is 4.72 in the series on Splenocyte [5] and less than 4.30 in the series with Splenocyte [1]. The Activity result in the series on L02 is reported as “Non-Toxic”.
As to `C#C[C@@]1(O)[C@H](O)[C@@H](CO)O[C@H]1n1ccc2c(N)ncnc21`, the pEC50 in the series with dengue virus type 3 is 5.96. Also, the selectivity ratio in series [9] was found to be 67. For the same compound, the CC50 at 48 h in [10] was determined as 74 µM.
`NC(=O)c1ncn([C@@H]2O[C@H](CO)[C@@H](O)[C@H]2O)n1` [RIBAVIRIN]: in [8], the CC50 at 144 h worked out at 95 µM. Moreover, in [2], the CC50 at 48 h is more than 300 µM. Besides, the values for the pEC50 (in series [11]; in the series with Influenza A virus) were 5.27 and 5.38, respectively. In addition, the results for the selectivity ratio in [12] and in [7] were 18 and more than 71, respectively.

Usually pEC50 stands for the negative decadic logarithm of the EC50, by convention in mol/L. The term CC50 denotes the concentration at which the toxic effect on the cells reaches its halfway point. In general, EC50 refers to the concentration that produces a half-maximal response.
